“Also recorded” adds a separate entry of the source.
Assays:
Format in all cases: cell-based, human
[1] = test system: neutrophil migration across confluent HMEC monolayers; experiment: TNF-α induced neutrophil migration across HMEC monolayers; conditions: HMECs; 24 h TNF-α 10 or 20 ng/ml; 100 nM, 1 h pretreatment
Description: FIG. 4 graphically depicts the effect of PMA on TNF-α induced neutrophil migration.
Turning now to FIG. 5, FIG. 5 graphically depicts the effect of Bryostatin-1 on TNF-α induced neutrophil migration.
Migration Assays: At confluency HMECs were treated for 1 h at 37° C. with Bryostatin-1 (10 nM, 100 nM) in MCDB-131 media or MCDB-131 media alone. Inserts were washed three times with Hank's Balanced Salt Solution (HBSS) (to eliminate drug effects on the neutrophils) and placed in a new plate containing either 500 μL 100 nM LTB4, or HBSS alone for control. 500 μL HBSS was then added to the top well and spiked with 500,000 neutrophils. For TNF-α experiments, HMECs were left in 20 ng/ml TNF-α in MCDB-131 for 24 h TNF-α was removed and HMECs washed three times. […] Migration was stopped by removing the inserts and migration was measured using the myeloperoxidase (MPO) assay.
Myeloperoxidase Assay: Neutrophil migration was measured using myeloperoxidase (MPO) analysis. […] The supernatant was removed, and MPO activity was measured using TMB/peroxide as chromogen. The reaction was stopped with sulfuric acid and absorbance was read at 450 nm using a microplate reader. […] Data was expressed as “% neutrophil migration”, which allowed cumulative statistical analysis to be done and account for unpreventable batch-to-batch variations.

[2] = test system: PKC-ε siRNA nucleofected HUVEC; experiment: LTB4 mediated neutrophil migration across PKC-ε siRNA nucleofected HUVEC; conditions: 1 h pretreatment; PKC-ε knockdown
Description: Because studies in FIG. 8 could not discriminate between PKC-δ and […] isoforms mediating the effect of Bryostatin-1, we knocked down individual isoforms using siRNA technology. In order to verify that we could knock down particular isoforms of PKC, specifically PKC-8 and PKC-ε isoforms in HUVEC, siRNA which selectively bind to and eliminate human PKC-8 and PKC-ε mRNAs were nucleofected into HUVEC prior to migration studies. […] HUVEC cells treated using these approaches were then subjected to chemotaxis studies with Bryostatin-1 to elucidate the mechanism of Bryostatin-1 mediated inhibition of LTB4 induced PMN migration.
Neutrophil Transendothelial Migration (TEM) Restoration Studies: HUVECs were pretreated with Go-6983 (1, 10, 100 nM), or Go-6976 (1, 10,100 nM) for 30 minutes, then spiked with 100 nM Bryostatin-1 for 1 hour. […] Migration was stopped by removing the inserts and migration was measured using the MPO assay.
Myeloperoxidase Assay: Neutrophil migration was measured using myeloperoxidase (MPO) analysis. […] The supernatant was removed, and MPO activity was measured using TMB/peroxide as chromogen. The reaction was stopped with sulfuric acid and absorbance was read at 450 nm using a microplate reader. […] Data was expressed as “% neutrophil migration”, which allowed cumulative statistical analysis to be done and account for unpreventable batch-to-batch variations. […]

HMEC = experiment: Alamar blue endothelial viability assay, HMEC; conditions: single 1 h 100 nM treatment; 1, 24, 48 h
Description: (§1) Viability Assay. The Alamar blue assay was used to determine endothelial viability after pharmacological intervention. Alamar blue contains a REDOX indicator that results in a color change upon chemical reduction by cellular metabolic activity. Endothelial cells were treated with Bryostatin-1 (100 nM) for 1 h and washed three times with HBSS. Alamar blue (10%) in media was added for 2.5 h at T=0, 24, or 48 hours after drug treatment and the ratio of absorbances (570-600 nm) was measured to determine metabolic activity.

[3] = test system: neutrophil migration across HUVECs; experiment: Time course of LTB4 induced neutrophil migration across HUVECs; conditions: single 1 h 100 nM pretreatment, washed, tested at 0, 24, 48 h
Description: Time Course Assays: At confluency, HUVECs were treated for 1 h at 37° C. with Bryostatin-1 (10 nM, 100 nM) in EGM or EGM alone. Inserts were washed three times with HBSS (to reduce drug effects on the neutrophils) and migration assays were ran at t=0, 24, or 48 h. After time elapsed, HUVECs were placed in a new plate containing either 500 μL 100 nM LTB4 or HBSS alone for control. 500 μL HBSS was then added to the top well and spiked with 500,000 neutrophils. Neutrophils were allowed to migrate for 3 h at 37° C. Migration was stopped by removing the inserts and migration was measured using the MPO assay.
Myeloperoxidase Assay: Neutrophil migration was measured using myeloperoxidase (MPO) analysis. Cell culture inserts were first removed, and plates were spun at 1,500 RPM for 5 min. The supernatant was removed, and MPO activity was measured using TMB/peroxide as chromogen. The reaction was stopped with sulfuric acid and absorbance was read at 450 nm using a microplate reader. All experiments were performed n=6. Data was expressed as “% neutrophil migration”, which allowed cumulative statistical analysis to be done and account for unpreventable batch-to-batch variations.

HUVEC = experiment: Alamar blue endothelial viability assay, HUVEC; conditions: for HUVEC viability at 48 h: 48 h after a single 1 h 100 nM treatment; for HUVEC viability at 1 and 24 h: single 1 h 100 nM treatment, 1, 24 h
Description: as §1

SMILES	effect on TNF-α induced neutrophil TEM (Type II migration) [1]	effect on LTB4 mediated neutrophil migration in PKC-ε siRNA nucleofected HUVEC [2]	HMEC viability (HMEC)	time after pretreatment for which reduction of LTB4 induced migration is maintained, HUVECs [3]	HUVEC viability at 48 h (HUVEC)	HUVEC viability at 1 and 24 h (HUVEC)
CCCCCCCCCCCCCC(=O)O[C@@H]1[C@@H](C)[C@@]2(O)[C@@H](C=C(CO)C[C@]3(O)C(=O)C(C)=C[C@@H]23)[C@@H]2C(C)(C)[C@]12OC(C)=O [PMA, phorbol myristate acetate]	attenuated Type II migration; also recorded: totally attenuated	did not restore LTB4 induced migration	no effect	up to 48 h	slight but significant reduction in viability	no effect
CCC/C=C/C=C/C(=O)O[C@H]1/C(=C/C(=O)OC)C[C@H]2C[C@H]([C@@H](C)O)OC(=O)C[C@H](O)C[C@@H]3C[C@H](OC(C)=O)C(C)(C)[C@](O)(C[C@@H]4C/C(=C/C(=O)OC)C[C@H](/C=C/C(C)(C)[C@]1(O)O2)O4)O3 [Bryostatin-1]	attenuated Type II migration; also recorded: totally attenuated	did not restore LTB4 induced migration; also recorded: still suppresses migration	no effect	48 h	no effect	no effect

Reference: patent publication US20230139328A1, “DOSAGE FORMS FOR IMPROVING ORGAN TRANSPLANTATION, GRAFT VERSUS HOST DISEASE AND STEM CELLS TRANSPLANTS” (Aphios Corporation, priority 2020, published 2023)
